Results reported in patent US10919916B2, “Boron-containing small molecules” (Bill & Melinda Gates Foundation, priority 2016, dated 2021).
In brackets after ≈: the same amount, converted by molar mass. Where two headings read alike, the source gives them in different places.

Experiments:
Type in all cases: cell-based
[1] = test system: Staphylococcus aureus, MRSA (ATCC 33591); test: Antibacterial MIC assay (microbroth dilution, CLSI); conditions: read-out: MIC Staphylococcus aureus, MRSA (ATCC 33591)
In short: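 Microbroth dilution per CLSI M07-A10/M100-S25 in cation-adjusted Mueller-Hinton broth, with 3% lysed horse blood added for S. pneumoniae. Inoculum from a 0.5 McFarland direct colony suspension, diluted to 5×10^5 CFU/mL in the well. Compounds were 2-fold serially diluted; MIC read against a growth control.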

[2] = test system: Streptococcus pneumoniae (ATCC 49619); test: as above
In short: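 CLSI broth microdilution: 2-fold compound dilutions in cation-adjusted Mueller-Hinton broth supplemented with 3% lysed horse blood for S. pneumoniae, inoculum 5×10^5 CFU/mL from a 0.5 McFarland direct colony suspension, with growth control.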

[3] = test system: Wolbachia pipientis in C6/36 cell line; test: Anti-Wolbachia high-content assay; conditions: read-out: EC50 Wolbachia pipientis in C6/36 cell line
Method: After 15 minutes, all media was removed from each well and fresh media (no stain) was added. Imaging of each well was accomplished using a Perkin Elmer Operetta high-content imaging system. Five fields per well were imaged using a confocal 60× objective with the Fluorescein filter (excitation filter: 460-490 nm; emission filter: 500-550 nm). Images were analyzed using the Perkin Elmer Harmony software to score each intact cell on the basis of texture complexity of the cytoplasm. Full details can be found in: […]. et al, J. Biomol.

[4] = microbroth dilution, cation-adjusted Mueller-Hinton broth, 35° C. for 16-20 hours
[5] = ATCC49619, microbroth dilution, 3% lysed horse blood, 35° C. for 16-20 hours, read-out: MIC Streptococcus pneumoniae (ATCC 49619)
[6] = C6/36 (wAlbB) cells, 7 days at 26° C., 50% reduction of Wolbachia
[7] = ATCC49619, read-out: MIC Streptococcus pneumoniae (ATCC 49619)

| MIC [1, 4] | MIC [2, 5] | EC50 [3, 6] | Compound | MIC [1] | MIC [2, 7] | EC50 ([3]; C6/36, […]) |
| --- | --- | --- | --- | --- | --- | --- |
| 4 to 32 µg/mL (≈ 6.3 to 50.4 µM) | 0.5 to 2 µg/mL (≈ 0.788 to 3.15 µM) | > 1 µM | C=C[C@]1(C)C[C@@H](OC(=O)COc2ccc3c(c2F)B(O)N(S(C)(=O)=O)N=C3)[C@]2(C)[C@H](C)CC[C@]3(C[C@H](O)C(=O)[C@H]32)[C@@H](C)[C@@H]1O [Compound 77, (2S,3aR,4R,5R,7S,8S,9R,9aS,12R)-2,8-dihydroxy-4,7,9,12-tetramethyl-3-oxo-7-vinyldecahydro-4,9a-propanocyclopenta[8]annulen-5-yl 2-((8-fluoro-1-hydroxy-2-(methylsulfonyl)-1,2-dihydrobenzo[d][1,2,3]diazaborinin-7-yl)oxy)acetate] | – | – | – |
| 0.5 to 2 µg/mL (≈ 0.811 to 3.24 µM) | 0.5 to 2 µg/mL (≈ 0.811 to 3.24 µM) | 0.013 µM | C=C[C@]1(C)C[C@@H](OC(=O)COc2ccc3c(c2)B(O)N(S(C)(=O)=O)N=C3)[C@]2(C)[C@H](C)CC[C@]3(C[C@H](O)C(=O)[C@H]32)[C@@H](C)[C@@H]1O [Compound 78, (2S,3aR,4R,5R,7S,8S,9R,9aS,12R)-2,8-dihydroxy-4,7,9,12-tetramethyl-3-oxo-7-vinyldecahydro-4,9a-propanocyclopenta[8]annulen-5-yl 2-((1-hydroxy-2-(methylsulfonyl)-1,2-dihydrobenzo[d][1,2,3]diazaborinin-7-yl)oxy)acetate] | – | – | – |
| < 0.25 µg/mL | < 0.25 µg/mL | 0.046 µM | C=C[C@]1(C)C[C@@H](OC(=O)COc2ccc3c(c2C)B(O)N(C(=O)OC)N=C3)[C@]2(C)[C@H](C)CC[C@]3(C[C@H](F)C(=O)[C@H]32)[C@@H](C)[C@@H]1O [Compound 95, Methyl 7-(2-(((2S,3aR,4R,5R,7S,8S,9R,9aS,12R)-2-fluoro-8-hydroxy-4,7,9,12-tetramethyl-3-oxo-7-vinyldecahydro-4,9a-propanocyclopenta[8]annulen-5-yl)oxy)-2-oxoethoxy)-1-hydroxy-8-methylbenzo[d][1,2,3]diazaborinine-2(1H)-carboxylate] | – | – | – |
| 0.5 to 2 µg/mL (≈ 0.902 to 3.61 µM) | 0.5 to 2 µg/mL (≈ 0.902 to 3.61 µM) | 0.078 µM | C=C[C@]1(C)C[C@@H](OC(=O)COc2ccc3c(c2)B(O)N(C)N=C3)[C@]2(C)[C@H](C)CC[C@]3(C[C@H](F)C(=O)[C@H]32)[C@@H](C)[C@@H]1O [Compound 84, (2S,3aR,4R,5R,7S,8S,9R,9aS,12R)-2-fluoro-8-hydroxy-4,7,9,12-tetramethyl-3-oxo-7-vinyldecahydro-4,9a-propanocyclopenta[8]annulen-5-yl 2-((1-hydroxy-2-methyl-1,2-dihydrobenzo[d][1,2,3]diazaborinin-7-yl)oxy)acetate] | – | – | – |

Second part, the compound before the results:

| Compound | MIC [1, 4] | MIC [2, 5] | EC50 [3, 6] | MIC [1] | MIC [2, 7] | EC50 ([3]; C6/36, […]) |
| --- | --- | --- | --- | --- | --- | --- |
| C=C[C@]1(C)C[C@@H](OC(=O)COc2ccc(C3=CCOB3O)cc2)[C@]2(C)[C@H](C)CC[C@]3(CCC(=O)[C@H]32)[C@@H](C)[C@@H]1O [Compound 103, (3aR,4R,5R,7S,8S,9R,9aS,12R)-8-hydroxy-4,7,9,12-tetramethyl-3-oxo-7-vinyldecahydro-4,9a-propanocyclopenta[8]annulen-5-yl 2-(4-(2-hydroxy-2,5-dihydro-1,2-oxaborol-3-yl)phenoxy)acetate] | < 0.25 µg/mL | < 0.25 µg/mL | 0.419 µM | – | – | – |
| C=C[C@]1(C)C[C@@H](OC(=O)COc2ccc3c(c2)B(O)OC3CNC(C)=O)[C@]2(C)[C@H](C)CC[C@]3(CCC(=O)[C@H]32)[C@@H](C)[C@@H]1O (stereo partly drawn) [Compound 22, (3aR,4R,5R,7S,8S,9R,9aS,12R)-8-hydroxy-4,7,9,12-tetramethyl-3-oxo-7-vinyldecahydro-4,9a-propanocyclopenta[8]annulen-5-yl 2-((3-(acetamidomethyl)-1-hydroxy-1,3-dihydrobenzo[c][1,2]oxaborol-6-yl)oxy)acetate] | 0.5 to 2 µg/mL (≈ 0.86 to 3.44 µM) | 0.5 to 2 µg/mL (≈ 0.86 to 3.44 µM) | > 1 µM | – | – | – |
| C=C[C@]1(C)C[C@@H](OC(=O)COc2ccc3c(c2F)B(O)OC3CNC(=O)OC(C)(C)C)[C@]2(C)[C@H](C)CC[C@]3(CCC(=O)[C@H]32)[C@@H](C)[C@@H]1O (stereo partly drawn) [Compound 28, (3aR,4R,5R,7S,8S,9R,9aS,12R)-8-hydroxy-4,7,9,12-tetramethyl-3-oxo-7-vinyldecahydro-4,9a-propanocyclopenta[8]annulen-5-yl 2-((3-(((tert-butoxycarbonyl)amino)methyl)-7-fluoro-1-hydroxy-1,3-dihydrobenzo[c][1,2]oxaborol-6-yl)oxy)acetate] | 0.5 to 2 µg/mL (≈ 0.76 to 3.04 µM) | 0.5 to 2 µg/mL (≈ 0.76 to 3.04 µM) | > 1 µM | – | – | – |
| C=C[C@]1(C)C[C@@H](OC(=O)COc2cc3c(cn2)COB3O)[C@]2(C)[C@H](C)CC[C@]3(CCC(=O)[C@H]32)[C@@H](C)[C@@H]1O [Compound 100, (3aR,4R,5R,7S,8S,9R,9aS,12R)-8-hydroxy-4,7,9,12-tetramethyl-3-oxo-7-vinyldecahydro-4,9a-propanocyclopenta[8]annulen-5-yl 2-((1-hydroxy-1,3-dihydro-[1,2]oxaborolo[4,3-c]pyridin-6-yl)oxy)acetate] | > 64 µg/mL | – | > 1 µM | – | – | – |
| C=C[C@]1(C)C[C@@H](OC(=O)COc2cc(CNC(=O)OC(C)(C)C)c3c(c2Cl)B(O)OC3)[C@]2(C)[C@H](C)CC[C@]3(CCC(=O)[C@H]32)[C@@H](C)[C@@H]1O [Compound 7, (3aR,4R,5R,7S,8S,9R,9aS,12R)-8-hydroxy-4,7,9,12-tetramethyl-3-oxo-7-vinyldecahydro-4,9a-propanocyclopenta[8]annulen-5-yl 2-((4-(((tert-butoxycarbonyl)amino)methyl)-7-chloro-1-hydroxy-1,3-dihydrobenzo[c][1,2]oxaborol-6-yl)oxy)acetate] | – | – | – | 0.5 to 2 µg/mL (≈ 0.742 to 2.97 µM) | 4 to 32 µg/mL (≈ 5.93 to 47.5 µM) | 0.428 µM |
| C=C[C@]1(C)C[C@@H](OC(=O)COc2cc3c(c(C4CCNCC4)c2)COB3O)[C@]2(C)[C@H](C)CC[C@]3(CCC(=O)[C@H]32)[C@@H](C)[C@@H]1O [Compound 18, (3aR,4R,5R,7S,8S,9R,9aS,12R)-8-hydroxy-4,7,9,12-tetramethyl-3-oxo-7-vinyldecahydro-4,9a-propanocyclopenta[8]annulen-5-yl 2-((1-hydroxy-4-(piperidin-4-yl)-1,3-dihydrobenzo[c][1,2]oxaborol-6-yl)oxy)acetate] | 0.5 to 2 µg/mL (≈ 0.842 to 3.37 µM) | – | > 1 µM | – | – | – |
| C=C[C@]1(C)C[C@@H](OC(=O)CNc2ccc3c(c2)B(O)OC3CN)[C@]2(C)[C@H](C)CC[C@]3(CCC(=O)[C@H]32)[C@@H](C)[C@@H]1O (stereo partly drawn) [Compound 52, (3aR,4R,5R,7S,8S,9R,9aS,12R)-8-hydroxy-4,7,9,12-tetramethyl-3-oxo-7-vinyldecahydro-4,9a-propanocyclopenta[8]annulen-5-yl (3-(aminomethyl)-1-hydroxy-1,3-dihydrobenzo[c][1,2]oxaborol-6-yl)glycinate] | – | – | – | 0.5 to 2 µg/mL (≈ 0.929 to 3.71 µM) | 0.5 to 2 µg/mL (≈ 0.929 to 3.71 µM) | – |
| C=C[C@]1(C)C[C@@H](OC(=O)CSc2ccc3c(c2F)B(O)OC3)[C@]2(C)[C@H](C)CC[C@]3(CCC(=O)[C@H]32)[C@@H](C)[C@@H]1O [Compound 65, (3aR,4R,5R,7S,8S,9R,9aS,12R)-8-hydroxy-4,7,9,12-tetramethyl-3-oxo-7-vinyldecahydro-4,9a-propanocyclopenta[8]annulen-5-yl 2-((7-fluoro-1-hydroxy-1,3-dihydrobenzo[c][1,2]oxaborol-6-yl)thio)acetate] | – | – | – | < 0.25 µg/mL | 0.5 to 2 µg/mL (≈ 0.918 to 3.67 µM) | – |
